{
  "source": "patent US7655225B2",
  "about": "“Methods of expanding stem and progenitor cells and expanded cell populations obtained thereby” (Gamida Cell, Ltd., priority 2002, dated 2010)",
  "key": {"mononuclear cells (MNC)": {"system": "mononuclear cells (MNC)", "assay": "Morphological analysis of cells from long-term MNC cultures", "assay_type": "cell-based, human", "conditions": "untreated: fully differentiated", "experimental": "Morphological assessment: In order to characterize the resulting culture populations, aliquots of cells were deposited on a glass slide (cytocentrifuge, Shandon, Runcorn, UK), fixed and stained in May-Grunwald and Giemsa stain. Cloning potential evaluation, morphological assessment and surface antigen analyses were carried out as described in the experimental procedures section of Example 1 above."}, "CD34+ cells [1]": {"system": "CD34+ cells", "assay": "Ex vivo expansion of purified CD34+ cells in liquid culture: cell enumeration and FACS of subsets", "assay_type": "cell-based, human", "conditions": "for density of CD34+CD38− cells, fold higher than untreated control / density of CD34+ Lin− progenitor cells, fold higher than untreated control: with IL-3; for density of CD34+CD38− cells, fold higher than untreated control: FIG. 6b; for density of CD34+ Lin− progenitor cells, fold higher than untreated control: FIG. 6c", "experimental": "Sample collection and processing: Samples were obtained from umbilical human cord blood and processed within 12 hours. The blood cells were mixed with 3% Gelatin (Gigma, St. Louis, Mo.) and allowed to sediment for 30 minutes to remove most red blood cells. The leukocyte-rich fraction was harvested, layered on Ficoll-Hypaque (density 1.077 gram/ml; Sigma) and centrifuged at 400 g for 30 minutes at room temperature. The mononuclear cells in the interface layer were then collected, washed three times in phosphate-buffered saline (PBS; Biological Industries), and re-suspended in PBS solution which contains 1% bovine serum albumin (BSA; Sigma). The cells were then incubated at 4° C. for 30 minutes with murine monoclonal anti CD34^+ antibody (0.5 μg/10^6 mononuclear cells) and were thereafter isolated using two cycles of immuno-magnetic separation using the miniMACS CD34^+ Progenitor Cell Isolation Kit (Miltenyi-Biotec, Auburn, Calif.) according to the manufacturer's recommendations. The purity of the CD34^+ cells obtained ranged between 95% and 98%, based on Flow Cytometry evaluation (see below). Ex vivo expansion of progenitor cells: Enriched CD34^+ cell fractions were cultures in 24-well Costar Cell Culture Clusters (Corning Inc., Corning, N.Y.) or in Culture Bags (American Fluoroseal Corp.) with alpha minimal essential medium supplemented with 10% fetal bovine serum (FBS, Biological Industries), at about 1-3×10^4 cells/ml medium. The media were further supplemented with the following human recombinant cytokines (all obtained from Perpo Tech, Inc., Rocky Hill, N.J.): Thrombopoietin (TPO), 50 ng/ml; interleukin 6 (IL-6), 50 ng/ml; FLT-3 ligand, 50 ng/ml; and IL-3, 20 ng/ml. The cultures were incubated at 37° C. in an atmosphere of 5% CO2 in air with extra humidity. At weekly intervals cell cultures were semi-depopulated and supplemented with fresh medium containing the cytokines. Following different incubation periods, the cells were harvested, stained with trypan blue and enumerated. The total cell counts, numbers of CD34^+ cells and subsets thereof, and the number of colony-forming cells (CFU) are presented herein as cumulative numbers, with the assumption that the cultures had not been passaged, namely, the numbers of cells per ml were multiplied by the number of passages performed. Surface antigen analysis: At different time intervals, the cultured cells were harvested, washed with a PBS solution containing 1% BSA and 0.1% sodium azide (Sigma), and stained, at 4° C. for 60 minutes, with FITC-labeled anti CD45 monoclonal antibody and either PE-labeled anti CD34 (HPCA-2) monoclonal or PE-labeled control mouse Ig (all from Immunoquality Products, the Netherlands). The cells were then washed with the same PBS solution and were analyzed by a flow cytometer, as described hereinafter. Flow cytometry analysis: Cells were analyzed and sorted using FACS caliber flow cytometer (Becton-Dickinson, Immunofluorometry systems, Mountain View, Calif.). Cells were passed at a rate of 1,000 cells/second through a 70 μm nozzle, using a saline sheath fluid. A 488 nm argon laser beam at 250 mW served as the light source for excitation. Fluorescence emission of ten thousand cells was measured using a logarithmic amplification and analyzed using CellQuest software. Determination of the density of stem and progenitor subset populations following expansion: Following an incubation period, the CD34^+ cells were re-selected using miniMACS Miltenyi kit. The purity of the positive fraction of selected CD34^+ cells was confirmed by FACS analysis as well as by cell morphology analysis. The density of CD34^+ cells, in proportion (percentage) to total cells, was determined directly via FACS analysis. The densities of CD34^+ subset populations were determined from the purified CD34^+ fraction. Re-selected CD34^+ cells were stained with lineage specific antigens followed by FACS analysis to determine the percentage of the subset populations within the total number of CD34^+ cells. […]"}, "CD34+ cells [2]": {"system": "CD34+ cells", "assay": "Morphological assessment of cultured CD34+ cells", "assay_type": "cell-based, human", "conditions": "8-weeks culture; control: mainly differentiated cells; FIGS. 3a-b", "excerpt": "Morphological assessment: In order to characterize the resulting culture populations, aliquots of cells were deposited on a glass slide (cytocentrifuge, Shandon, Runcorn, UK), fixed and stained in May-Grunwald and Giemsa stain."}, "platelets": {"system": "platelets", "assay": "In vivo recovery of platelets after gamma-irradiation", "parameters": "species or system mice (BALB/C X C57B1/6/F1)", "conditions": "single treatment, 30 μM; irradiated mice", "experimental": "In this experiment, ten mice (BALB/C X C57B1/6/F1) were gamma-irradiated (700 cGy) so as to mimic an irradiation therapy situation that destroys platelets. One day after irradiation five (out of ten) mice were administered with 30 μM of Cu-TEPA, while the other five mice were non-treated. The platelet levels in all mice were enumerated one week after irradiation. […] The results of this experiment illustrate that a copper chelate can effectively enhance the recovery of hematopoietic cells in subjects exposed to irradiation treatment."}},
  "data": [
    {"compound": "NCCNCCNCCNCCN", "note": "[TEPA chelator, tetraethylenepentamine]", "values": [
      {"measurement": "morphological analysis of cells", "setting": "mononuclear cells (MNC)", "result": "high proportion of non-differentiated cells"},
      {"measurement": "density of CD34+ CD38− subset cells vs untreated or TEPA-Cu treatment", "setting": "CD34+ cells [1]; three weeks, 5 μM, FIG. 12b", "result": "substantially increased"},
      {"measurement": "density of CD34+ Lin− subset cells vs untreated or TEPA-Cu treatment", "setting": "CD34+ cells [1]; three weeks, 5 μM, FIG. 12c", "result": "substantially increased"},
      {"measurement": "density of CD34+CD38− cells vs untreated or TEPA-Cu treatment", "setting": "CD34+ cells [1]; two and three weeks, 5 μM, FIG. 13b", "result": "substantially higher"},
      {"measurement": "density of CD34+ Lin− cells vs untreated or TEPA-Cu treatment", "setting": "CD34+ cells [1]; two and three weeks, 5 μM, FIG. 13c", "result": "substantially higher"},
      {"measurement": "density of CD34+ cells vs untreated control", "setting": "CD34+ cells [1]; two weeks culture, 5 μM, FIGS. 11a-b", "result": "slightly decreased"}
    ]},
    {"compound": "NCCNCCNCCNCCN.[Cl-].[Cl-].[Cu+2]", "note": "[TEPA-Cu chelate, tetraethylenepentamine-copper chelate]", "values": [
      {"measurement": "morphological analysis of culture", "setting": "CD34+ cells [2]", "result": "mainly blast-like cells"},
      {"measurement": "recovery of platelets vs non-treated control", "setting": "platelets", "result": "significantly accelerated"},
      {"measurement": "density of CD34+CD38− cells, fold higher than untreated control", "setting": "CD34+ cells [1]; 20 μM, two weeks", "result": 5, "unit": "fold"},
      {"measurement": "density of CD34+ Lin− progenitor cells, fold higher than untreated control", "setting": "CD34+ cells [1]; 20 μM, two weeks", "result": 3, "unit": "fold"},
      {"measurement": "density of CD34+CD38− cells, fold higher than untreated control", "setting": "CD34+ cells [1]; 40 μM, two weeks", "result": 15, "unit": "fold"},
      {"measurement": "density of CD34+ Lin− progenitor cells, fold higher than untreated control", "setting": "CD34+ cells [1]; 40 μM, two weeks", "result": 5, "unit": "fold"},
      {"measurement": "density of CD34+CD38− cells, fold higher than untreated control", "setting": "CD34+ cells [1]; 50 μM, two weeks", "result": 15, "unit": "fold"},
      {"measurement": "density of CD34+ Lin− progenitor cells, fold higher than untreated control", "setting": "CD34+ cells [1]; 50 μM, two weeks", "result": 4, "unit": "fold"},
      {"measurement": "number of CD34+ cells vs untreated (cytokines only) culture", "setting": "CD34+ cells [1]; 2 and 3 weeks, 30 μM or 40 μM, FIG. 5a", "result": "remained almost unchanged"},
      {"measurement": "number of CD34+CD38− cells, fold higher than untreated control", "setting": "CD34+ cells [1]; 3 weeks, 30 μM or 40 μM, FIG. 5b", "result": "6-7 fold"},
      {"measurement": "number of CD34+ Lin− cells, fold higher than untreated control", "setting": "CD34+ cells [1]; 3 weeks, 30 μM or 40 μM, FIG. 5c", "result": "4-6.5 fold"},
      {"measurement": "density of CD34+ stem cells, expansion", "setting": "CD34+ cells [1]; three weeks, 40 μM, TPO, FLT-3, IL-6, SCF, untreated 40 fold, FIG. 4a", "result": 50, "unit": "fold"},
      {"measurement": "density of CD34+CD38− progenitor cells, expansion", "setting": "CD34+ cells [1]; three weeks, 40 μM, untreated 5 fold, FIG. 4b", "result": 250, "unit": "fold"},
      {"measurement": "density of CD34+ Lin− progenitor cells, expansion", "setting": "CD34+ cells [1]; three weeks, 40 μM, untreated 10 fold, FIG. 4c", "result": 110, "unit": "fold"},
      {"measurement": "more total cells as compared with the untreated control", "setting": "CD34+ cells [1]; three weeks, 50 μM, FIG. 8a", "result": "ca. 25%"},
      {"measurement": "density of CD34+ CD38− subset cells vs untreated control", "setting": "CD34+ cells [1]; three weeks, 50 μM, FIG. 8c", "result": "substantially higher"},
      {"measurement": "density of CD34+ Lin− subset cells vs untreated control", "setting": "CD34+ cells [1]; three weeks, 50 μM, FIG. 8d", "result": "substantially higher"},
      {"measurement": "CD34+ cell expansion vs untreated control", "setting": "CD34+ cells [1]; two weeks culture, 40 μM, FIGS. 11a-b", "result": "did not significantly affect"},
      {"measurement": "density of CD34+CD61+ progenitor cells, fold vs untreated control", "setting": "CD34+ cells [1]; two weeks, 40 μM, FIG. 7a", "result": "ca. 2 fold"},
      {"measurement": "density of CD34+CD41+ progenitor cells, fold vs untreated control", "setting": "CD34+ cells [1]; two weeks, 40 μM, FIG. 7b", "result": "~3", "unit": "fold"},
      {"measurement": "density of CD34+ stem cells, fold higher than untreated control", "setting": "CD34+ cells [1]; two weeks, 20, 40 and 50 μM, TPO, FLT-3, IL-6, IL-3, FIG. 6a", "result": "ca. 1.5 fold"}
    ]}
  ]
}
